Laboratory results reported in patent US20170150719A1, “FUNGICIDAL PYRAZOLES AND THEIR MIXTURES” (E I DU PONT DE NEMOURS AND COMPANY, priority 2010, published 2017).

Legend:
[1] = test system: Phytophthora infestans; assay: whole plant or invertebrate; assay type: in vivo; details: for Test C rating (% disease control) / Test C rating (disease control): tomato late blight, 100 = 100% disease control; for Test C rating (% disease control): preventive spray, rating without asterisk; for Test C rating (disease control): 0 = no disease control relative to the controls; for pest or weed control at 200 µg/mL: Phytophthora infestans, in Solanum lycopersicum, read-out: Test C rating (disease control)
[2] = test system: Septoria tritici; assay: Test F: wheat leaf blotch, preventive spray on wheat seedlings, visual disease rating; assay type: in vivo; details: 100 = 100% disease control; for Test F rating (% disease control): preventive spray, rating without asterisk; for Test F rating (disease control) / pest or weed control at 200 µg/mL: 0 = no disease control relative to the controls; for pest or weed control at 200 µg/mL: Zymoseptoria tritici
From the text: (§1) A hyphen (-) indicates no test results.

[3] = test system: Puccinia recondita f. sp. tritici; assay: Test G: wheat leaf rust, spray after inoculation (curative) on wheat seedlings, visual disease rating; assay type: in vivo; details: 100 = 100% disease control; for Test G rating (% disease control): spray after inoculation, rating without asterisk; for Test G rating (disease control) / pest or weed control at 200 µg/mL: sprayed after inoculation, 0 = no disease control
From the text: as §1

[4] = test system: Puccinia recondita f. sp. tritici; assay: Test H: wheat leaf rust, preventive spray on wheat seedlings, visual disease rating; details: 100 = 100% disease control; for Test H rating (% disease control) / Test H rating (disease control): wheat leaf rust; for Test H rating (% disease control): preventive spray, rating without asterisk; for Test H rating (disease control): sprayed the day before inoculation; for Test H rating (disease control) / pest or weed control at 200 µg/mL: 0 = no disease control; for pest or weed control at 200 µg/mL: read-out: Test H rating (disease control), wheat leaf rust, sprayed the day before inoculation
[5] = test system: Botrytis cinerea; assay: Test A: tomato Botrytis, preventive spray on tomato seedlings, visual disease rating; details: 100 = 100% disease control; for Test A rating (% disease control) / Test A rating (disease control): tomato Botrytis; for Test A rating (% disease control): preventive spray, 0 = no control relative to controls, rating without asterisk; for Test A rating (disease control) / pest or weed control at 200 µg/mL: 0 = no disease control relative to the controls; for pest or weed control at 200 µg/mL: Botrytis cinerea, in Solanum lycopersicum, read-out: Test A rating (disease control), tomato Botrytis
Method: General protocol for preparing test suspensions for Tests A-I: the test compounds were first dissolved in acetone in an amount equal to 3% of the final volume and then suspended at the desired concentration (in ppm) in acetone and purified water (50/50 mix by volume) containing 250 ppm of the surfactant Trem® 014 (polyhydric alcohol esters). The resulting test suspensions were then used in Tests A-I. Each test was conducted in triplicate, and the results were averaged. Spraying a 200 ppm test suspension to the point of run-off on the test plants was the equivalent of a rate of about 800 g/ha. Unless otherwise indicated, the rating values indicate a 200 ppm test suspension was used. (An asterisk “*” next to the rating value indicates a 40 ppm test suspension was used.)
The test suspension was sprayed to the point of run-off on tomato seedlings. The following day the seedlings were inoculated with a spore suspension of Botrytis cinerea (the causal agent of tomato Botrytis) and incubated in saturated atmosphere at 20° C. for 48 h, and then moved to a growth chamber at 24° C. for 3 additional days, after which time visual disease ratings were made.

[6] = test system: Alternaria solani; assay: Test B: tomato early blight, preventive spray on tomato seedlings, visual disease rating; details: for Test B rating (% disease control) / Test B rating (disease control): tomato early blight, 100 = 100% disease control; for Test B rating (% disease control): preventive spray, rating without asterisk; for Test B rating (disease control): 0 = no disease control relative to the controls; for pest or weed control at 200 µg/mL: Alternaria solani, in Solanum lycopersicum, read-out: Test B rating (disease control)
[7] = test system: Blumeria graminis f. sp. tritici; assay: Test I: wheat powdery mildew, preventive spray on wheat seedlings, visual disease rating; details: 100 = 100% disease control; for Test I rating (% disease control) / Test I rating (disease control): wheat powdery mildew; for Test I rating (% disease control): preventive spray, rating without asterisk; for Test I rating (disease control) / pest or weed control at 200 µg/mL: 0 = no disease control relative to the controls; for pest or weed control at 200 µg/mL: Blumeria graminis, in Triticum aestivum, read-out: Test I rating (disease control), wheat powdery mildew
[8] = test system: Septoria nodorum; assay: Test E: Septoria glume blotch, preventive spray on wheat seedlings, visual disease rating; details: 100 = 100% disease control; for Test E rating (% disease control): Septoria glume blotch on wheat, preventive spray, rating without asterisk; for Test E rating (disease control): Septoria glume blotch; for Test E rating (disease control) / pest or weed control at 200 µg/mL: 0 = no disease control relative to the controls; for pest or weed control at 200 µg/mL: Parastagonospora nodorum, in Triticum aestivum, read-out: Test E rating (disease control), Septoria glume blotch

## CCOc1ccc(-c2c(C)nn(C)c2Nc2c(Cl)cc(F)cc2Cl)c(F)c1 [compound 192]
[1]
  Test C rating (% disease control): 0%
[2]
  Test F rating (% disease control): 100%
[3]
  Test G rating (% disease control): 0%
[4]
  Test H rating (% disease control): 65%
[5]
  Test A rating (% disease control): 33%
[6]
  Test B rating (% disease control): 66%
[7]
  Test I rating (% disease control): 35%
[8]
  Test E rating (% disease control): 0%

## Cc1nn(C)c(Nc2ccc(C#N)cc2F)c1-c1c(F)cc(F)cc1F [compound 34]
[1]
  Test C rating (disease control): 9%
[2]
  Test F rating (disease control): 100%
[3]
  Test G rating (disease control): 0%
[4]
  Test H rating (disease control): 99%
[5]
  Test A rating (disease control): 100%
[6]
  Test B rating (disease control): 99%
[7]
  Test I rating (disease control): 99%
[8]
  Test E rating (disease control): 94%

## CCOc1cc(F)c(-c2c(C)nn(C)c2Nc2c(F)cc(Cl)cc2F)c(F)c1 [compound 199]
[1]
  Test C rating (% disease control): 68%
[2]
  Test F rating (% disease control): 100%
[3]
  Test G rating (% disease control): 0%
[4]
  Test H rating (% disease control): 83%
[5]
  Test A rating (% disease control): 100%
[6]
  Test B rating (% disease control): 100%
[7]
  Test I rating (% disease control): 99%
[8]
  Test E rating (% disease control): 69%

## Cc1nn(C)c(Oc2c(F)cc(C#N)cc2F)c1-c1ccc(F)cc1F [compound 45]
[1]
  Test C rating (disease control): 0%
[2]
  Test F rating (disease control): 98%
[3]
  Test G rating (disease control): 0%
[4]
  Test H rating (disease control): 100%
[5]
  Test A rating (disease control): 100%
[6]
  Test B rating (disease control): 99%
[7]
  Test I rating (disease control): 99%
[8]
  Test E rating (disease control): 99%

## Cc1nn(C)c(Nc2c(Cl)cc(F)cc2Cl)c1-c1ccc(F)cc1Cl [Compound 138, 4-(2-chloro-4-fluorophenyl)-N-(2,6-dichloro-4-fluorophenyl)-1,3-dimethyl-1H-pyrazol-5-amine]
[1]
  pest or weed control at 200 µg/mL: 0%
[2]
  pest or weed control at 200 µg/mL: 100%
[3]
  pest or weed control at 200 µg/mL: 17%
[4]
  pest or weed control at 200 µg/mL: 100%
[5]
  pest or weed control at 200 µg/mL: 100%
[6]
  pest or weed control at 200 µg/mL: 66%
[7]
  pest or weed control at 200 µg/mL: 99%
[8]
  pest or weed control at 200 µg/mL: 0%

## Cc1nn(C)c(Nc2c(F)cc(F)cc2Cl)c1-c1ccc(F)cc1Cl [Compound 82, N-(2-chloro-4,6-difluorophenyl)-4-(2-chloro-4-fluorophenyl)-1,3-dimethyl-1H-pyrazol-5-amine]
[1]
  pest or weed control at 200 µg/mL: 0%
[2]
  pest or weed control at 200 µg/mL: 100%
[3]
  pest or weed control at 200 µg/mL: 97%
[4]
  pest or weed control at 200 µg/mL: 100%
[5]
  pest or weed control at 200 µg/mL: 99%
[6]
  pest or weed control at 200 µg/mL: 100%
[7]
  pest or weed control at 200 µg/mL: 100%
[8]
  pest or weed control at 200 µg/mL: 100%

## COc1ccc(-c2c(C)nn(C)c2Nc2c(F)cc(Cl)cc2F)c(F)c1 [compound 185]
[1]
  Test C rating (% disease control): 0%
[2]
  Test F rating (% disease control): 100%
[3]
  Test G rating (% disease control): 0%
[4]
  Test H rating (% disease control): 99%
[5]
  Test A rating (% disease control): 100%
[6]
  Test B rating (% disease control): 99%
[7]
  Test I rating (% disease control): 100%
[8]
  Test E rating (% disease control): 60%

## Cc1nn(C)c(Nc2c(F)cc(Cl)cc2Br)c1-c1ccc(F)cc1Cl [compound 186]
[1]
  Test C rating (% disease control): 0%
[2]
  Test F rating (% disease control): 100%
[3]
  Test G rating (% disease control): 100%
[4]
  Test H rating (% disease control): 100%
[5]
  Test A rating (% disease control): 100%
[6]
  Test B rating (% disease control): 100%
[7]
  Test I rating (% disease control): 100%
[8]
  Test E rating (% disease control): 100%

## CCOc1cc(F)c(-c2c(C)nn(C)c2Nc2c(Cl)cc(F)cc2Cl)c(F)c1 [compound 200]
[1]
  Test C rating (% disease control): 31%
[2]
  Test F rating (% disease control): 100%
[3]
  Test G rating (% disease control): 0%
[4]
  Test H rating (% disease control): 86%
[5]
  Test A rating (% disease control): 98%
[6]
  Test B rating (% disease control): 97%
[7]
  Test I rating (% disease control): 79%
[8]
  Test E rating (% disease control): 0%

## Cc1nn(C)c(Nc2c(F)cc(Cl)cc2F)c1-c1ccc(Cl)cc1Cl [compound 157]
[1]
  Test C rating (disease control): 0%
[2]
  Test F rating (disease control): 100%
[3]
  Test G rating (disease control): 27%
[4]
  Test H rating (disease control): 100%
[5]
  Test A rating (disease control): 100%
[6]
  Test B rating (disease control): 97%
[7]
  Test I rating (disease control): 99%
[8]
  Test E rating (disease control): 87%

## Cc1nn(C)c(Nc2ccc(F)cc2Cl)c1-c1ccc(F)cc1Cl [Compound 47, N,4-bis(2-chloro-4-fluorophenyl)-1,3-dimethyl-1H-pyrazol-5-amine]
[1]
  pest or weed control at 200 µg/mL: 0%
[2]
  pest or weed control at 200 µg/mL: 96%
[3]
  pest or weed control at 200 µg/mL: 93%
[4]
  pest or weed control at 200 µg/mL: 99%
[5]
  pest or weed control at 200 µg/mL: 100%
[6]
  pest or weed control at 200 µg/mL: 99%
[7]
  pest or weed control at 200 µg/mL: 100%
[8]
  pest or weed control at 200 µg/mL: 82%

## Cc1nn(C)c(Nc2c(F)cc(Cl)cc2Cl)c1-c1ccc(F)cc1F [Compound 161, N-(2,4-dichloro-6-fluorophenyl)-4-(2,4-difluorophenyl)-1,3-dimethyl-1H-pyrazol-5-amine]
[1]
  pest or weed control at 200 µg/mL: 0%
[2]
  Test F rating (disease control): 99%
[3]
  Test G rating (disease control): 100%
[4]
  Test H rating (disease control): 100%
[5]
  Test A rating (disease control): 100%
[6]
  Test B rating (disease control): 99%
[7]
  Test I rating (disease control): 100%
[8]
  Test E rating (disease control): 100%

## Cc1nn(C)c(Nc2c(Cl)cc(F)cc2Cl)c1-c1c(F)cccc1F [Compound 142, N-(2,6-dichloro-4-fluorophenyl)-4-(2,6-difluorophenyl)-1,3-dimethyl-1H-pyrazol-5-amine]
[1]
  pest or weed control at 200 µg/mL: 0%
[2]
  pest or weed control at 200 µg/mL: 100%
[3]
  pest or weed control at 200 µg/mL: 0%
[4]
  pest or weed control at 200 µg/mL: 100%
[5]
  pest or weed control at 200 µg/mL: 100%
[6]
  pest or weed control at 200 µg/mL: 96%
[7]
  pest or weed control at 200 µg/mL: 100%
[8]
  pest or weed control at 200 µg/mL: 92%

## Cc1nn(C)c(Nc2c(F)cc(Br)cc2F)c1-c1c(F)cccc1F [Compound 145, N-(4-bromo-2,6-difluorophenyl)-4-(2,6-difluorophenyl)-1,3-dimethyl-1H-pyrazol-5-amine]
[1]
  pest or weed control at 200 µg/mL: 0%
[2]
  pest or weed control at 200 µg/mL: 100%
[3]
  pest or weed control at 200 µg/mL: 0%
[4]
  pest or weed control at 200 µg/mL: 28%
[5]
  pest or weed control at 200 µg/mL: 99%
[6]
  pest or weed control at 200 µg/mL: 0%
[7]
  pest or weed control at 200 µg/mL: 90%
[8]
  pest or weed control at 200 µg/mL: 0%
